ChEMBL document CHEMBL1909046, “DrugMatrix in vitro pharmacology data”

Assays:
B2 bradykinin receptor = molecular target: T1, B2 bradykinin receptor (Homo sapiens, UniProt P30411); format: cell membranes, Membrane; conditions: chem-1; note: in other assays of this panel Not Active means under 50% inhibition at 10 µM
T1 sequence (P30411 whole entry): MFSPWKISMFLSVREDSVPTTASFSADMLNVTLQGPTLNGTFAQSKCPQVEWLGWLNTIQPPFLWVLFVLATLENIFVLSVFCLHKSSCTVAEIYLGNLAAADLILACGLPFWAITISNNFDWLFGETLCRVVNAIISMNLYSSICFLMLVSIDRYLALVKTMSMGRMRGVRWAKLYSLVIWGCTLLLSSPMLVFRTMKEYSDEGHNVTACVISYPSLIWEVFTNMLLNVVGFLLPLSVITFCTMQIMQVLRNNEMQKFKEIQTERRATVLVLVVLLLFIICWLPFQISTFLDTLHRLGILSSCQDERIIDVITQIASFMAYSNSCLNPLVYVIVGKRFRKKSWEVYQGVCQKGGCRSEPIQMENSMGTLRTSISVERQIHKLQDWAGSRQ

[1] = DRUGMATRIX: Imidazoline I2, Central radioligand binding (ligand: [3H] Idazoxan); format: cell membranes, Rattus norvegicus, Wistar, Cerebral cortex, Membrane; conditions: Not Active = under 50% inhibition at 10 µM
D(4) dopamine receptor = molecular target: T2, D(4) dopamine receptor (Homo sapiens, UniProt P21917); assay: DRUGMATRIX: Dopamine D4.2 radioligand binding (ligand: [3H] Spiperone); format: cell membranes, CHO-K1, Membrane; conditions: cho-k1; Not Active = under 50% inhibition at 10 µM
T2 sequence (P21917 whole entry): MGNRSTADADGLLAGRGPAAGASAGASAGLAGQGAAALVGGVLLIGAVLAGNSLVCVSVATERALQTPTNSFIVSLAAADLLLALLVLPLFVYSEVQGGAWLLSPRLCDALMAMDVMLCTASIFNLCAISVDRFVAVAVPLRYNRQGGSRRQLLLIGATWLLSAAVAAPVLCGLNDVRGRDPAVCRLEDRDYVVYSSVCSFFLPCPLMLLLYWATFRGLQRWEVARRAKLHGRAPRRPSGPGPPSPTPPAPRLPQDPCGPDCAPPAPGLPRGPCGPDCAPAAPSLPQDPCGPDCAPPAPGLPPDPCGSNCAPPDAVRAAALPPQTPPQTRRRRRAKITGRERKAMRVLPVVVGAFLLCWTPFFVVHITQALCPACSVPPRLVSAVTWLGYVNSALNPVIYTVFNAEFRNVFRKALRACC

[2] = molecular target: Mitogen-activated protein kinase 3 (Homo sapiens, UniProt P27361); assay: DRUGMATRIX: Protein Serine/Threonine Kinase, ERK1 enzyme inhibition (substrate: Myelin Basic Protein); set-up: species or system Escherichia coli; conditions: Not Active = under 50% inhibition at 10 µM
[3] = DRUGMATRIX: Platelet-Derived Growth Factor (PDGF) radioligand binding (ligand: [125I] PDGF); format: cell-based; conditions: nih3t3; Not Active = under 50% inhibition at 10 µM
Substance-P receptor = Substance-P receptor (Homo sapiens, UniProt P25103); format: cell membranes, CHO, Membrane; conditions: cho; note: in other assays of this panel Not Active means under 50% inhibition at 10 µM
[4] = molecular target: Matrix metalloproteinase-9 (Homo sapiens, UniProt P14780); assay: biochemical; format: cell-based;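 note: inhibition of isolated MMP-9 enzyme activity toward a synthetic peptide substrate, from the DrugMatrix protease screening panel; in other assays of this panel Not Active means under 50% inhibition at 10 µM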
Chain of Matrix metalloproteinase-9 (P14780 whole entry): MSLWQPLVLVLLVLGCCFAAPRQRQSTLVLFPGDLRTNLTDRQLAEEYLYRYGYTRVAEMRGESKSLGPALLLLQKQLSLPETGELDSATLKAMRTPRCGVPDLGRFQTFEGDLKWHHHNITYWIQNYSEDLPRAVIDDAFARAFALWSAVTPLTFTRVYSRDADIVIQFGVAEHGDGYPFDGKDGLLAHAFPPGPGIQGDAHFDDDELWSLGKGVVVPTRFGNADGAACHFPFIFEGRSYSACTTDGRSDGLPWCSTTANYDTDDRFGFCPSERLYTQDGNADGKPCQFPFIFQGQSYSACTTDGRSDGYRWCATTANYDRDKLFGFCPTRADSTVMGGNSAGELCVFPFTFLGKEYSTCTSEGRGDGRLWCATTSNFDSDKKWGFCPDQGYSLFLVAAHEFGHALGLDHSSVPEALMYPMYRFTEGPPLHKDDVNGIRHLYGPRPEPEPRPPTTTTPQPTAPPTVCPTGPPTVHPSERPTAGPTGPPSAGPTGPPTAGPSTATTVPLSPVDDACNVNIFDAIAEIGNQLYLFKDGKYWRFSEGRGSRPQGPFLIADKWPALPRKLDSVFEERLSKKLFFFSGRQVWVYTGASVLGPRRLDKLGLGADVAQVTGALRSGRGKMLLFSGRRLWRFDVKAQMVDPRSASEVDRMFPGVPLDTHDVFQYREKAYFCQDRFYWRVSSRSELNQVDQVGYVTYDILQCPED

Chain of Mitogen-activated protein kinase 3 (P27361 whole entry): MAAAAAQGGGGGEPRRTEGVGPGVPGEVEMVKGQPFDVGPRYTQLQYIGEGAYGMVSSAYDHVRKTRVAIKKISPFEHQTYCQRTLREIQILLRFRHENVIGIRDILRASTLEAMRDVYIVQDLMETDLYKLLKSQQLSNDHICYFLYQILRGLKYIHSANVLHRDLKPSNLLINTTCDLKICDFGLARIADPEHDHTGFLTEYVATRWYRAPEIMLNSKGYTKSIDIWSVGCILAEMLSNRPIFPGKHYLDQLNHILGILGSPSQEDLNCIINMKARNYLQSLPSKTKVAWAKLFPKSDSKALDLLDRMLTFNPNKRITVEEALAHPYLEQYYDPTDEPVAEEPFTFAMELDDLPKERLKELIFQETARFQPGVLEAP
Chain of Substance-P receptor (P25103 whole entry): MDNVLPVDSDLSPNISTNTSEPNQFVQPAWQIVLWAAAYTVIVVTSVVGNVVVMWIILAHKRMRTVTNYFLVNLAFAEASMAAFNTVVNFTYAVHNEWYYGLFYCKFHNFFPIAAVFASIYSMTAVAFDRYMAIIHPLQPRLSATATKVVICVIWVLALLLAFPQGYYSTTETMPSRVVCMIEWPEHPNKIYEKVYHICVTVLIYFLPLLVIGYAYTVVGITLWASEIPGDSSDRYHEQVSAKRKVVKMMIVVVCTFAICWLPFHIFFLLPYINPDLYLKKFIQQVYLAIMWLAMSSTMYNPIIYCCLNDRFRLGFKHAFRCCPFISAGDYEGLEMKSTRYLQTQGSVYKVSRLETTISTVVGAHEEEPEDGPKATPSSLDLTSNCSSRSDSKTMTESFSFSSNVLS

Nc1ccn([C@@H]2O[C@H](CO)[C@@H](O)[C@@H]2O)c(=O)n1 [CYTARABINE]
IC50 (B2 bradykinin receptor): Not Active
IC50 [1]: Not Active
Ki [1]: Not Active
IC50 (D(4) dopamine receptor): Not Active
IC50 [2]: Not Active
IC50 [3]: Not Active
Ki [3]: Not Active
IC50 (Substance-P receptor): Not Active
IC50 [4]: Not Active

C[C@@H]1C[C@H]2[C@@H]3CCC4=CC(=O)C=C[C@]4(C)[C@@]3(F)[C@@H](O)C[C@]2(C)[C@H]1C(=O)CO [DESOXIMETASONE]
IC50 (B2 bradykinin receptor): Not Active
IC50 [1]: Not Active
Ki [1]: Not Active
IC50 (D(4) dopamine receptor): Not Active
IC50 [2]: Not Active
IC50 [3]: Not Active
Ki [3]: Not Active
IC50 (Substance-P receptor): Not Active
IC50 [4]: Not Active

C[C@@H]1C[C@H]2[C@@H]3CCC4=CC(=O)C=C[C@]4(C)[C@@]3(F)[C@@H](O)C[C@]2(C)[C@@]1(O)C(=O)CO [DEXAMETHASONE]
IC50 (B2 bradykinin receptor): Not Active
IC50 [1]: Not Active
Ki [1]: Not Active
IC50 (D(4) dopamine receptor): Not Active
IC50 [2]: Not Active
IC50 [3]: Not Active
Ki [3]: Not Active
IC50 (Substance-P receptor): Not Active
IC50 [4]: Not Active

CN(C)CC[C@@H](c1ccc(Cl)cc1)c1ccccn1 [DEXCHLORPHENIRAMINE]
IC50 (B2 bradykinin receptor): Not Active
IC50 ([1]; read-out: IC50): 15.2 µM
Ki ([1]; read-out: Ki): 10.1 µM
IC50 (D(4) dopamine receptor): Not Active
IC50 [2]: Not Active
IC50 [3]: Not Active
Ki [3]: Not Active
IC50 (Substance-P receptor): Not Active
IC50 [4]: Not Active

C[C@@H]1CC[C@@]2(OC1)O[C@H]1[C@@H](O)[C@H]3[C@@H]4CC[C@H]5C[C@@H](O[C@@H]6O[C@H](CO)[C@H](O[C@@H]7O[C@H](CO)C(O)[C@H](O[C@@H]8OC[C@@H](O)[C@H](O)[C@H]8O)[C@H]7O[C@@H]7O[C@H](CO)[C@H](O)[C@H](O[C@@H]8O[C@H](CO)[C@@H](O)[C@H](O)[C@H]8O)[C@H]7O)[C@H](O)[C@H]6O)[C@H](O)C[C@]5(C)[C@H]4CC[C@]3(C)[C@H]1[C@@H]2C (some centres undefined) [DIGITONIN]
IC50 (B2 bradykinin receptor): Not Active
IC50 [1]: Not Active
Ki [1]: Not Active
IC50 (D(4) dopamine receptor): Not Active
IC50 [2]: Not Active
IC50 [3]: Not Active
Ki [3]: Not Active
IC50 (Substance-P receptor): Not Active
IC50 [4]: Not Active

OC(CCCN1CCCCC1)(c1ccccc1)c1ccccc1 [DIPHENIDOL]
IC50 (B2 bradykinin receptor): Not Active
IC50 [1]: Not Active
Ki [1]: Not Active
IC50 (D(4) dopamine receptor): Not Active
IC50 [2]: Not Active
IC50 [3]: Not Active
Ki [3]: Not Active
IC50 (Substance-P receptor): Not Active
IC50 [4]: Not Active

C[C@H]1O[C@@H](n2cc(F)c(=O)[nH]c2=O)[C@H](O)[C@@H]1O [DOXIFLURIDINE]
IC50 (B2 bradykinin receptor): Not Active
IC50 [1]: Not Active
Ki [1]: Not Active
IC50 (D(4) dopamine receptor): Not Active
IC50 [2]: Not Active
IC50 [3]: Not Active
Ki [3]: Not Active
IC50 (Substance-P receptor): Not Active
IC50 [4]: Not Active

Cn1c(=O)c2c(ncn2CC(O)CO)n(C)c1=O (centres undefined) [DYPHYLLINE]
IC50 (B2 bradykinin receptor): Not Active
IC50 [1]: Not Active
Ki [1]: Not Active
IC50 (D(4) dopamine receptor): Not Active
IC50 [2]: Not Active
IC50 [3]: Not Active
Ki [3]: Not Active
IC50 (Substance-P receptor): Not Active
IC50 [4]: Not Active

CC[C@H]1CN2CCc3cc(OC)c(OC)cc3[C@@H]2C[C@@H]1C[C@H]1NCCc2cc(OC)c(OC)cc21 [EMETINE]
IC50 (B2 bradykinin receptor): Not Active
IC50 [1]: Not Active
Ki [1]: Not Active
IC50 (D(4) dopamine receptor): Not Active
IC50 [2]: Not Active
IC50 [3]: Not Active
Ki [3]: Not Active
IC50 (Substance-P receptor): Not Active
IC50 [4]: Not Active

C[C@@H](CO)NC(=O)[C@@H]1C=C2c3cccc4[nH]cc(c34)C[C@H]2N(C)C1 [ERGONOVINE]
IC50 (B2 bradykinin receptor): Not Active
Ki ([1]; read-out: Ki): 1.23 µM
IC50 (D(4) dopamine receptor): Not Active
IC50 [2]: Not Active
IC50 [3]: Not Active
Ki [3]: Not Active
IC50 (Substance-P receptor): Not Active
IC50 [4]: Not Active
